Data published in patent publication US20230210110A1, “METHOD FOR INDUCING ENVIRONMENTAL STRESS TOLERANCE IN PLANTS” (AJINOMOTO CO., INC., priority 2020, published 2023).

Test system: RD29B and MAPKKK18
Experiment: Effect of Lys derivatives and nitrogen-containing compounds on induction of environmental stress tolerance genes by ABA (activity level)
Assay type: in vivo, Arabidopsis thaliana
Details: 1 mM compound with 0.25 μM ABA
Description: (§1) Four to six young Arabidopsis thaliana plants grown on a 50% concentration MS (Murashige-Skoog) agar medium were transferred to a 6-well plate containing a 50% concentration MS (Murashige-Skoog) liquid medium and pre-cultured for 16 hours, then added with a treatment solution containing each amino acid alone or a treatment solution containing a combination of each amino acid and ABA, and left for 6 hours. Then, RNA was then isolated from the plants with a nucleic acid purification kit (Promega, Maxwell (registered trademark) 16 LEV simplyRNA Tissue Kit). Then, cDNA was synthesized with a cDNA synthesis reagent for real-time PCR (Toyobo, ReverTra Ace (registered trademark) qPCR RT Master Mix).
GAPDH is a glyceraldehyde-3-phosphate dehydrogenase gene and was selected as an internal standard.
Lys or each Lys derivative is used for treatment at 1 mM and ABA at 0.25 μM.

| Compound | effect on the gene expression inducing activity of ABA |
| --- | --- |
| COC(=O)[C@@H](N)CCCCN [compound 7] | no effect |
| N[C@@H](CCCCNC(=O)OCc1ccccc1)C(=O)O [compound 11] | no effect |
| CC(C)(C)OC(=O)[C@@H](N)CCCCNC(=O)OCc1ccccc1 [compound 25] | no effect |
| CC(C)(C)OC(=O)NCCCC[C@H](N)C(=O)OC(C)(C)C [compound 28] | no effect |

Same assay, conditions: total of induction activities of RD29B and MAPKKK18 with 1 mM compound and 0.25 μM ABA, relative to ABA alone taken as 1; >1 enhanced, 1 no effect, <1 suppressed

| Compound | Activity level |
| --- | --- |
| O=C(NCCCCCNC(=O)c1ccccc1)c1ccccc1 [II-2] | > 1 |
| O=C(NCCC[C@H](NC(=O)c1ccccc1)C(=O)O)c1ccccc1 [compound 6] | >1 |
| COC(=O)[C@@H](N)CCCCN [compound 7] | 1 |
| CC(=O)NCCCC[C@H](N)C(=O)O [compound 8] | <1 |
| N[C@@H](CCCCNC(=O)c1ccccc1)C(=O)O [compound 9] | <1 |
| N[C@H](CCCCNC(=O)c1ccccc1)C(=O)O [compound 10] | <1 |
| N[C@@H](CCCCNC(=O)OCc1ccccc1)C(=O)O [compound 11] | 1 |
| CC(C)(C)OC(=O)NCCCC[C@H](N)C(=O)O [compound 12] | >1 |
| N[C@H](CCCCNC(=O)OCc1ccccc1)C(=O)O [compound 13] | <1 |
| CN(C)CCCC[C@H](N)C(=O)O [compound 14] | >1 |
| CC(=O)N[C@@H](CCCCN)C(=O)O [compound 15] | <1 |
| NCCCC[C@H](NC(=O)/C=C/c1ccccc1)C(=O)O [compound 16] | <1 |
| NCCCC[C@H](NC(=O)OCc1ccccc1)C(=O)O [compound 17] | >1 |
| O=C(NCCC[C@H](NC(=O)OCc1ccccc1)C(=O)O)OCc1ccccc1 [compound 18] | >1 |
| CC(C)(C)OC(=O)NC[C@H](NC(=O)OCc1ccccc1)C(=O)O [compound 19] | >1 |
| CC(C)(C)OC(=O)NCC[C@H](NC(=O)OCc1ccccc1)C(=O)O [compound 20] | >1 |
| CCC(C)C(=O)C(=O)N[C@@H](CCCCNC(=N)N)C(=O)O (some centres unmarked) [compound 21] | <1 |
| COC(=O)[C@H](CCCCN)NC(=O)OCc1ccccc1 [compound 22] | >1 |
| NCCCC[C@H](NC(=O)OCc1ccccc1)C(=O)OCc1ccccc1 [compound 23] | <1 |
| COC(=O)[C@@H](N)CCCCNC(=O)OCc1ccccc1 [compound 24] | >1 |
| CC(C)(C)OC(=O)[C@@H](N)CCCCNC(=O)OCc1ccccc1 [compound 25] | 1 |

| Compound | Activity level |
| --- | --- |
| N[C@@H](CCCCNC(=O)OCc1ccccc1)C(=O)OCc1ccccc1 [compound 26] | <1 |
| COC(=O)[C@@H](N)CCCCNC(=O)OC(C)(C)C [compound 27] | >1 |
| CC(C)(C)OC(=O)NCCCC[C@H](N)C(=O)OC(C)(C)C [compound 28] | 1 |
| COC(=O)[C@H](CCCCNC(=O)OC(C)(C)C)NC(=O)OCc1ccccc1 [compound 29] | >1 |
| O=C(NCCCC[C@H](NC(=O)c1ccccc1)C(=O)O)c1ccccc1 [compound 30] | <1 |
| CC(C)(C)OC(=O)N[C@@H](CCCCNC(=O)OCc1ccccc1)C(=O)O [compound 31] | >1 |
| CC(C)(C)OC(=O)NCCCC[C@H](NC(=O)OCc1ccccc1)C(=O)O [compound 32] | >1 |
| O=C(NCCCC[C@H](NC(=O)OCc1ccccc1)C(=O)O)OCc1ccccc1 [compound 33] | >1 |
| O=C(NCCCC[C@@H](NC(=O)OCc1ccccc1)C(=O)O)OCc1ccccc1 [compound 34] | >1 |
| O=C(N[C@@H](CCCCNC(=O)c1ccccc1)C(=O)O)OCc1ccccc1 [compound 35] | >1 |
| CC(C)(C)OC(=O)N[C@@H](CCCCNC(=O)OCc1cccc(Cl)c1)C(=O)O [compound 36] | >1 |
| CC(C)(C)OC(=O)NCCCC[C@H](NC(=O)OC(C)(C)C)C(=O)O [compound 37] | >1 |
| CC(C)(C)OC(=O)N[C@@H](CCCCNC(=O)OC(F)(F)F)C(=O)O [compound 38] | >1 |
| CC(C)(C)OC(=O)NCCCC[C@H](NC(=O)OCC1c2ccccc2-c2ccccc21)C(=O)O [compound 39] | <1 |
| CC(C)(C)OC(=O)N[C@@H](CCCCNC(=O)OCC1c2ccccc2-c2ccccc21)C(=O)O [compound 40] | >1 |
| O=C(NCCCC[C@H](NC(=O)OCc1ccccc1)C(=O)O)OCC1c2ccccc2-c2ccccc21 [compound 41] | <1 |
| O=C(NCCCC[C@H](NC(=O)OCC1c2ccccc2-c2ccccc21)C(=O)O)OCC1c2ccccc2-c2ccccc21 [compound 42] | >1 |
| Cc1ccc(C(NCCCC[C@H](NC(=O)OCC2c3ccccc3-c3ccccc32)C(=O)O)(c2ccccc2)c2ccccc2)cc1 [compound 43] | >1 |
| Cc1cccc(OCC(=O)NCCCC[C@H](NC(=O)COc2cccc(C)c2)C(=O)O)c1 [compound 44] | >1 |
| O=C(O)[C@H](CCCCN1C(=O)c2ccccc2C1=O)N1C(=O)c2ccccc2C1=O [compound 45] | >1 |
| Cn1c(=O)n(CCCC[C@H](NC(=O)c2c(Cl)cccc2Cl)C(=O)O)c(=O)c2ccccc21 [compound 46] | >1 |

Test system: RD29A, RD29B, MAPKKK18, ABF3F and SLAC1 genes
Experiment: Induction of expression of environmental stress tolerance (ABA-responsive) genes, real-time PCR, relative to GAPDH
Assay type: in vivo, Arabidopsis thaliana
Details: amino acid alone or combination with ABA, 6 hours, n=3

| Compound | activity to induce expression of the environmental stress tolerance gene RD29B |
| --- | --- |
| N[C@@H](Cc1c[nH]c2ccccc12)C(=O)O [Trp, tryptophan] | No activity |

Test system: RD29A, RD29B, MAPKKK18, ABF3F and SLAC1 genes
Experiment: as above
Assay type: in vivo, Arabidopsis thaliana
Details: RD29B expression; amino acid in combination with ABA
Description: as §1
MAPKKK18 is a gene encoding a kinase (MAPKKK18, MITOGEN-ACTIVATED PROTEIN KINASE KINASE KINASE 18) that functions in the ABA signaling pathway of Arabidopsis thaliana (Zelicourt A. et al., Trends in Plant Science 21: (2016)). RD29A and RD29B are genes encoding hydrophilic proteins (RESPONSIVE TO DESICCATION 29A, RESPONSIVE TO DESICCATION 29B) that are responsive for ABA and environmental stress such as drought stress and salinity stress and considered to be involved in stress tolerance and senescence suppression (Yang S. D. et al., Plant Cell 6: 2155-2168 (2011)). ABF3 is a gene encoding a transcription factor (ABA-responsive element-binding protein) that regulates expression of ABA-responsive genes (Yoshida T. et al., Plant, cell and Environment 38: 35-49 (2015)). SLAC1 is a gene encoding an anion channel involved in stomatal closure (Yoshida et al., J Plant Res (2016) 129:39-49). GAPDH is a glyceraldehyde-3-phosphate dehydrogenase gene and was selected as an internal standard.
The expression levels of the genes were calculated as relative expression levels to the GAPDH gene. Twenty amino acids were divided into 10 each, and the gene expression inducing activity when combined with ABA was evaluated in two tests (n=2).
(§2) The expression levels of the respective genes were calculated as relative expression levels to the GAPDH gene in the same manner as in Example 1.
Separately, Arabidopsis thaliana was treated with a combination of 0.1 mM, 0.25 mM, 1 mM, 2.5 mM, 10 mM, or 25 mM of Lys and 0.25 μM of ABA in the same manner as in Example 1, and expression of MAPKKK18, RD29A, and RD29B genes after 6 hours of treatment was analyzed (n=3). The expression levels of the respective genes were calculated as relative expression levels to the GAPDH gene in the same manner as in Example 1. […]
as §2, §2

| Compound | activity of synergistically enhancing the effect of ABA |
| --- | --- |
| N[C@@H](Cc1c[nH]c2ccccc12)C(=O)O [Trp, tryptophan] | synergistically enhance the effect of ABA |
| CC(C)[C@H](N)C(=O)O [Val, valine] | synergistically enhance the effect of ABA |

Same assay, conditions: amino acid alone or combination with ABA, 6 hours, n=3

| Compound | activity to induce expression of the environmental stress tolerance gene RD29B |
| --- | --- |
| CC(C)[C@H](N)C(=O)O [Val, valine] | No activity |
